The numbers were not newly measured in patent publication US20050186288A1, “Compositions and methods for the prophylaxis and treatment of aphthous ulcers and herpes simplex lesions” (Chiou Consulting Inc., priority 2002, published 2005), which cites them from elsewhere.

The test system of the data set is herpes infection (wound or ulcer). As to conditions: salt alone.

On to magnesium pentosan polysulfate, for which the “effect in treating herpes infection (wound or ulcer)” value is “ineffective”. zinc pentosan polysulfate: the “effect in treating herpes infection (wound or ulcer)” value was “ineffective”.
